Data on one molecule can be found in paper PMC6018554, “2-[2-(4-(trifluoromethyl)phenylamino)thiazol-4-yl]acetic acid (Activator-3) is a potent activator of AMPK” (Scientific Reports, 2018).

Entries after “also recorded” stand apart in the source; their conditions may differ. Like-named read-outs stand apart in the source and are kept apart here.

A word on the EC50: it is the concentration that produces a half-maximal response. As usually defined, the half-life is the time in which the quantity being followed falls by half. Higher therefore signals slow loss. Usually Cmax stands for the highest concentration seen after dosing. As usually defined, the AUC is concentration integrated over time.

For series [1], the system named is Adenylate kinase. Put plainly: AK activity assay kit. The class given is biochemical.
Series [2] has as its system AMPK. Nature of the series: Cell based ELISA (pAMPK/pACC) in primary rat hepatocytes. As for the experimental part:
Primary rat hepatocytes were isolated by collagenase (type4, Invitrogen: Cat# 17104-019) digestion as described previously. Digested cells were suspended in DMEM supplemented with 10% FBS. Cells were seeded into 96-well plate (20,000 cells per well) pre-coated with collagen (2 mg/ml). As the cells were metabolically active, medium was changed after cells have attached and allowed to incubate overnight before performing cell based assay.
Approximately 40,000 cells per well were seeded into a 96 well plate (Biofil, cat# TCP011096) and incubated overnight at 37 °C and 5% CO2. After the seeded cells reached 80% confluence, cells were treated with Activator-3 with different working concentrations and 500 μM AICAR (Caymen chemicals, cat# 10010241-10) and incubated for 30 min to 2 h (depending upon the primary antibody used) at 37 °C and 5% CO2. Medium was aspirated and fixed with 4% of formaldehyde solution (diluted in 1X PBS) incubated for 1 h at 4 °C on shaker. Cells were washed with tween 20 (diluted in 1X PBS) on shaker for 5 minutes at room temperature (3 times). […] To quantify the bound primary antibody, cells were probed with a HRP conjugated secondary anti-rabbit antibody (1:2000 dilution, Bio-Rad; Cat# 170-6515) diluted in 1X PBST and incubated 2 h at RT on rocker. […] This reaction is stopped by adding 2 N H2SO4 and plate was immediately read at 450 nm using UV–Vis Spectrophotometer.
On the technique in general: An ELISA detects its analyte on a solid surface through an enzyme-linked reagent.

The test system of series [3] is human recombinant AMPK isozymes. Put plainly: In vitro AMP kinase assays, isozymes taken together. Format: biochemical. As for the experimental part:
(§1) A high binding Enzyme Immuno Assay (EIA) 96-well plate (Sigma: Cat# CLS3590) was coated with Acetyl CoA Carboxylase 2 (ACC: 175–271 amino acids) peptide, a direct substrate for AMPK, 100 ng per well (1:1000 ratio, Cat# 12–491, Upstate biotechnology) and incubated overnight at 25 °C. Reaction mixture was incubated at 30 °C for 2 h and reaction was stopped by washing the plate with 0.05% Tween 20 followed by incubation with pACC primary antibody and rabbit secondary antibody as described in cell based ELISA section. Assay buffer is composed of 10 mM DTT, 100 mM magnesium acetate, 50 μM ATP and 10 mM HEPES.

The nature of series [4]: Pharmacokinetic study in male rats. The class given is in vivo, rat. As for the experimental part: Male SD rats were orally administered 30 mg/Kg of Activator-3. Blood and brain samples were collected at specified time points and were analyzed for Activator-3 using a LC-MS/MS method[64]–[66]. […] The human plasma protein binding was ~80% (data not shown). […] Systemic exposure of Activator-3 was very high in plasma compared to brain.
Male SD rats were orally administered with 30 mg/Kg of Activator-3. Blood and brain samples were collected at specified time points and were analyzed for Activator-3 using optimized LC-MS/MS method[64]–[66].

Series [5] concerns the target human recombinant AMPK α2β1γ1 (Homo sapiens, UniProt P54619). Put plainly: In vitro AMP kinase assay (pACC ELISA), α2β1γ1. The class given is biochemical. Also noted: purchased SignalChem P47-10H-05/P48-10H-05 (for all four isozymes together); host or cells: baculovirus expression.
Text: Having observed the effect of Activator-3 on the activation of AMPK in cell based assays, we next examined whether Activator-3 could activate AMPK directly or not. […] The activity of recombinant human AMPK (α1β1γ1, α2β1γ1, α2β2γ2 and α2β2γ3) in the presence of vehicle was considered as 100%. The EC50 of Activator-3 for the activation of α1β1γ1, α2β1γ1 and α2β2γ2 isozymes were similar. However, the activity of Activator-3 against α2β2γ3 was marginally higher (Fig. 1C).
as §1

Series [6] addresses T1, LKB1 (Homo sapiens, UniProt Q15831).
T1 construct: purchased Kinexus, Canada (screening service)
Put plainly: Cell-free kinase assay (Kinexus). Format: biochemical. As for the experimental part:
To determine whether Activator-3 affects the activity of any other protein kinases, we screened it in cell-free assays against a panel of 100 protein kinases (Kinexus, Canada). […] Three kinases, DDR1 (−79%), SRC (−71%) and ALK5 (−61%) were inhibited by Activator-3 by more than 50% at 10 µM.
Table S2: Activity change observed in the LKB1 Kinase tested against Activator-3 at 200μM
Protein Kinase (CPM) (CPM) % Change
Table S3: Evaluating the goodness of the representative structure obtained from MD
simulations using PROCHECK server.
Ramchandran Map No. of resides Percentage
Most favored regions 889 85.8%
Additional allowed regions 128 12.4%
Generously allowed regions 13 1.3%
Disallowed regions 6 0.6%
Non-glycine and non-proline residues 1036 100.0%
Table S4: Heterotrimeric human AMPK crystal structures available in PDB.
PDBID Isoform Organism Inhibitor and/or activator Modifications References
Staurosporine, 108-SEP Lagendorf et al. 20161
5EZV α2β1γ1 Homo sapiens C2Z, C1V, Staurosporine 172-TPO […]

T1 sequence (Q15831 whole entry, species assumed): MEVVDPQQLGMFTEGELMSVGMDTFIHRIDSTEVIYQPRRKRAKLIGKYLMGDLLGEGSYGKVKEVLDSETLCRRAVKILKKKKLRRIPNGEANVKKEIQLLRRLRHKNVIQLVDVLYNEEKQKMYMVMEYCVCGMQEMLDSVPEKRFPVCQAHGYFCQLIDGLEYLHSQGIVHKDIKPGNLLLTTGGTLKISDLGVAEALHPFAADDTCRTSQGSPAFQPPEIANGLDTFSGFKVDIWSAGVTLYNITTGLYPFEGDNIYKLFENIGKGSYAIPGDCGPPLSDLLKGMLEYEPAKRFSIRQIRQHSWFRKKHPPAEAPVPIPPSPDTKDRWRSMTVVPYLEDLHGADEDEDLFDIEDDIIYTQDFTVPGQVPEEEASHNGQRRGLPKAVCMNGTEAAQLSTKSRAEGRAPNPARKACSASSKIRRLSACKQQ
T1 sequence (Q7RTN6 whole entry partner, species assumed): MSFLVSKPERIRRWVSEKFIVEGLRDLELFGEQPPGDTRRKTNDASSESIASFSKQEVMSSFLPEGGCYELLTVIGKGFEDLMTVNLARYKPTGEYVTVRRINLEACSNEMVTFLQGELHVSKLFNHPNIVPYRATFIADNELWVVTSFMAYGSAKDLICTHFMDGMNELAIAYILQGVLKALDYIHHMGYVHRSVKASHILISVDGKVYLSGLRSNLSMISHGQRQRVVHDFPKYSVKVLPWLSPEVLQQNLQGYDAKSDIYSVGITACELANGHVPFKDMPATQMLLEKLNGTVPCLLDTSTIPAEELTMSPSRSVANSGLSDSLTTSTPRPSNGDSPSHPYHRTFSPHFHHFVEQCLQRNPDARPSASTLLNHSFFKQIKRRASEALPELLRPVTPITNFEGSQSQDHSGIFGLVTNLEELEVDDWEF
T1 sequence (Q9Y376 whole entry partner, species assumed): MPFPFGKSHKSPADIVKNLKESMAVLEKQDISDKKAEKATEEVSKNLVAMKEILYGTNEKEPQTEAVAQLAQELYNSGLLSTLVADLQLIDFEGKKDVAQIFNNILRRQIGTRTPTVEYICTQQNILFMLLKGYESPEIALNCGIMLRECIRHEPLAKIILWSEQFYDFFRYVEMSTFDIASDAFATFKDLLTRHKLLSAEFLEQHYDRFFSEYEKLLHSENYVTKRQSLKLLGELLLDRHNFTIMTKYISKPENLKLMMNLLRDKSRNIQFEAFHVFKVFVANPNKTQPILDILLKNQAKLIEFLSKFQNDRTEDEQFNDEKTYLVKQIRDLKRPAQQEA
human recombinant AMPK α2β1γ1, sequence (P54619 whole entry): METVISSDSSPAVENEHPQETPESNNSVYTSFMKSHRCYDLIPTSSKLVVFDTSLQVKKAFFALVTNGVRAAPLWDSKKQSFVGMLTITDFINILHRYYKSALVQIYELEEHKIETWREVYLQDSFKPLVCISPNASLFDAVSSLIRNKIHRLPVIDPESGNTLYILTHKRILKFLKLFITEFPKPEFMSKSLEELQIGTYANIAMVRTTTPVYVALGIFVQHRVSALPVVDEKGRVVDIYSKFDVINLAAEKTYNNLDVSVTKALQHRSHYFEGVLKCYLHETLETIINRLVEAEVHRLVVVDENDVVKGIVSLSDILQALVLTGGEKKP
human recombinant AMPK α2β1γ1, sequence (P54646 whole entry partner): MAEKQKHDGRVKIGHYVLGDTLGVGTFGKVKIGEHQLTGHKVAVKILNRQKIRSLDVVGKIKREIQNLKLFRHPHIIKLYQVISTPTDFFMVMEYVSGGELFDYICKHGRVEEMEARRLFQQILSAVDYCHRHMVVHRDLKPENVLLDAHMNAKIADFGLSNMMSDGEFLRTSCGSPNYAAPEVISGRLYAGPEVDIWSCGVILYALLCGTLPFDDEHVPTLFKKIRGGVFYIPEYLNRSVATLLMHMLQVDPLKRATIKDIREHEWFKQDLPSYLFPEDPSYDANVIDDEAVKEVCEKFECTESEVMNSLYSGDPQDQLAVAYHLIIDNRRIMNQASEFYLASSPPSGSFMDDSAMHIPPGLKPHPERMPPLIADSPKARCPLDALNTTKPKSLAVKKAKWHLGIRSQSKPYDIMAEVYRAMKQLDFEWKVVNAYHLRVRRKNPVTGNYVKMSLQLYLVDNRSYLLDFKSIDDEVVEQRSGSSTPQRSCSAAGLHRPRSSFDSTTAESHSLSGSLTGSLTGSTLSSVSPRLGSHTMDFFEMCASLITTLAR
human recombinant AMPK α2β1γ1, sequence (Q9Y478 whole entry partner): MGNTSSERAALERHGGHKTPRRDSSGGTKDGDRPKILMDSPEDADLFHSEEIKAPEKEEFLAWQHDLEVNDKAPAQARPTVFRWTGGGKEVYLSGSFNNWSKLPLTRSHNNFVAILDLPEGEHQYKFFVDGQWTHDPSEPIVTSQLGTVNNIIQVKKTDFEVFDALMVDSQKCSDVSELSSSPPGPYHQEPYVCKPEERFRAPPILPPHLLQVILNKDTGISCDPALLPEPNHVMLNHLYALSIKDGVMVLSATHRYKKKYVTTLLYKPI

`O=C(O)Cc1csc(Nc2ccc(C(F)(F)F)cc2)n1` [Activator-3, 2-[2-(4-(trifluoromethyl)phenylamino)thiazol-4-yl]acetic acid]: the “effect on Adenylate kinase activity” value in series [1] (1 µM) is reported as “minimally affected”; in series [1] (≤10 µM), “unaffected”. Besides, the EC50 in series [2] was approximately 28 nM; in series [5] (read-out: EC50 allosteric activation hα2β1γ1) it was approximately 23 nM. Further, the “activation of AMPK” value in series [3] is 30–40%. Further, the t1/2 in series [4] (male SD rats, oral 30 mg/Kg, plasma, 30 mg/kg) is ~ 4 h. The “level in brain / brain penetration” value in series [4] (male SD rats, oral 30 mg/Kg, 30 mg/kg) is on record as “No significant level; also recorded: no brain penetration”. In addition, in series [4] (male, SD, rat, plasma, po, 30 mg/kg, male SD rats, oral 30 mg/Kg), the half-life is 247 min. For the same molecule, the bioavailability result in series [4] (rat, oral) is “good bioavailability”. In addition, the Cmax in series [4] (rat, plasma, male SD rats, oral 30 mg/Kg, read-out: Cmax in plasma) was approximately 109 µg/mL; in series [4] (rat, plasma, male SD rats, oral 30 mg/Kg, read-out: Cmax in plasma, molar) it was approximately 360 µM. The AUC in series [4] (rat, plasma, male SD rats, oral 30 mg/Kg, read-out: Systemic exposure in plasma (AUC)) was approximately 978 µg·h/mL; in series [4] (rat, plasma, male SD rats, oral 30 mg/Kg, read-out: Systemic exposure in plasma (AUC), molar), approximately 3300 µM·h. In addition, the “reduction of AMPK activity stimulated by 100 µM AMP” value in series [5] (Activator-3 1 nM to 10 μM with 100 µM AMP) is given as ~ 50%. For the same molecule, the “effect on kinase activity” value in series [6] (10 µM) was “not affected”. Besides, the “% Change” value in series [6] (200μM, Control 10984 CPM, Test 11638 CPM) is listed as 5%.
